Experimental data published in US20070203244A1, “INHIBITORS OF MEMBRANE TYPE-1 MATRIX METALLOPROTEINASE FOR THE TREATMENT OF INSULIN-DEPENDENT DIABETES MELLITUS” (priority 2006, published 2007).

Experiments:
[1] = target: MT1-MMP; details: cited from earlier work
[2] = test system: IS-CD8+ T cells; experiment: Homing of DiI-labeled IS-CD8+ T cells into the pancreatic islets of NOD mice; type: in vivo; details: 24 h
Protocol: Fluorescent Tracing and Morphometric Analysis—For trafficking studies, IS-CD8^+ T cells were incubated at 1×10^7 cells/ml for 30 min at 37° C. in the dark in complete Click's medium containing 5% fetal calf serum and 0.0075 mg/ml of the fluorescent dye 1,1′-didodecyl-3,3,3′,3′-tetramethylindocarbocyanine perchlorate (DiI; Molecular Probes, Eugene, Oreg.). After incubation, the cells were washed three times with phosphatebuffered saline to remove excess DiI. Labeled IS-CD8^+ cells (1×10^7 cells) were injected intravenously in 0.2 ml of phosphate-buffered saline into irradiated (725 rads, 24 h in advance) NOD mice. Mice were sacrificed 24 h after injection of DiI-labeled cells. The spleen and the pancreata were excised and fixed in 0.1 M periodate-lysine-paraformaldehyde phosphate buffer. The organs were next sucrose-saturated, freeze-molded in OCT compound (Sakura Finetek Inc., Torrance, Calif.), and freeze-sectioned. 7-μm-thick cryostat sections of the entire pancreas were prepared at 60-μm intervals using a Leica CM1900 cryotom. Distribution of DiI-labeled CD8^+ cells within the islets was examined using a fluorescent microscope. At least 100 individual islets per mouse (4-5 mice/experimental group) were examined. The characteristic morphology of the islets is easily identified on the cryosections. DiI-labeled cells were counted within the area relevant to each individual islet (see FIG. 3 for a representative image; the islet-relevant area is depicted by the solid white line, and the islet boundaries are shown by the white dotted line). The position of each IS-CD8^+ labeled cell was determined relative to the islet boundary. The labeled cells localized within the islet boundary were considered to be “inside,” whereas the labeled cells adjacent to the islet but outside of the islet boundary were considered to be “at the entrance.” This method has been described in substantial detail (Savinov, A. Y., et al. (2003), and Savinov, A. Y., et al. (2001), which are herein incorporated by reference in their entirety for their teaching of these methods).
Fluorescent tracing and morphometric analysis—For trafficking studies, IS-CD8^+ T cells were incubated at 1×10^7 cells/ml for 30 min at 37° C. in the dark in the complete Click's medium containing 5% FCS and 0.0075 mg/ml of fluorescent dye 1,1′-didodecyl-3,3,3′,3′-tetramethylindocarbocyanine perchlorate (DiI; Molecular Probes). After incubation, the cells were washed three times with PBS to remove excess DiI. Labeled IS-CD8^+ cells (1×10^7 cells) were intravenously injected in 0.2 ml of PBS into irradiated (725 Rad, 24 h in advance) NOD mice. Mice were sacrificed 24 h after injection of DiI-labeled cells. […] In 24 h, the spleen and the pancreata were excised and fixed in 0.1 M periodate-lysine-paraformaldehyde phosphate buffer. The organs were next sucrose-saturated, freeze-molded in OCT compound (Sakura Finetek Inc.) and freeze-sectioned. 7-μm-thick cryostat sections of the entire pancreas were prepared at the 60 μm intervals using a Leica CM1900 cryotom. Distribution of DiI-labeled CD8^+ cells within the islets was examined using a fluorescent microscope. At least 100 individual islets per mouse, 4-5 mice per each experimental group, were examined. The characteristic morphology of the islets is easily identified on the cryosections. DiI-labeled cells were counted within the area relevant to each individual islet. The position of each IS-CD8^+ labeled cell was determined relative to the islet boundary. […]

[3] = test system: NOD mice; experiment: Spontaneous diabetes in NOD mice, insulin jointly with AG3340; type: in vivo
Protocol: Newly diabetic NOD mice—NOD mice developed diabetes in approximately 5 months after the birth. The onset of spontaneous diabetes was identified by assessing urine glucose levels with Diastix® strips (Bayer). Mice with urine glucose levels >2000 mg/dl for three consecutive days were considered diabetic. […] Injections were continued for 40 days and then mice were sacrificed. Leukocytes and granulated β cells were stained with H&E and aldehyde fuchsin, respectively, in the sections of paraformaldehyde-fixed, paraffin-embedded, pancreata. […] To identify hormone-producing cells the sections were stained with the antibody to insulin (Linco Research, St. Charles, Mo.) and glucagons (DacoCytomation, Carpinteria, Calif.) followed by species-specific secondary horseradish peroxidase-conjugated antibody and a 3,3′-diaminobenzidine substrate.
Insulin injections were then suspended. Mice which after the onset of the disease received insulin became hyperglycemic in a matter of 2-3 days and were then sacrificed according to NIH guidelines.

[4] = AG3340 1 mg/kg i.p. with insulin, 40 days

## CC1(C)SCCN(S(=O)(=O)c2ccc(Oc3ccncc3)cc2)[C@H]1C(=O)NO [AG3340]
[1]
  Ki for MT1-MMP: sub-nanomolar
[2]; Example 1: cells co-incubated 2 h with AG3340 50 μM before injection
  IS-CD8+ cells found inside the islets: smaller number of cells
[2]; Example 2: AG3340 1 mg/kg i.v. 30 min before cells
  reduction in the T cell homing: 50%
[2]; Example 3: inhibitor i.p. before cells, SB-3CT and EGCG at much higher concentrations than AG3340
  homing of IS-CD8+ cells inside the islets: several-fold less cells
[3]; [4]
  islet regeneration in the pancreatic parenchyma: de novo formation of the islet-like structures
  number of the intact islets and the islets with limited peri-islet insulitis: increase
[3]; insulin jointly with AG3340 for 40 days, then no external insulin
  glycemia after insulin injections were suspended: normoglycemic/mildly hyperglycemic for several weeks
[3]; insulin s.c. jointly with AG3340 1 mg/kg i.p. every two-three days, 40 days
  severity of insulitis compared to the control: significant and promising reduction
[3]; short-term treatment, AG3340 1 mg/kg i.p. with insulin, 40 days
  return of overtly diabetic mice to normoglycemia: not sufficient
